The target in this assay is T1, human mAChR M4 (Homo sapiens, UniProt P08173).
T1 construct: expressed in transfected cells; host or cells: CHO-K1 (American Type Culture Collection), stably expressing hM4 and Gqi5
T1 sequence (P08173 1-479): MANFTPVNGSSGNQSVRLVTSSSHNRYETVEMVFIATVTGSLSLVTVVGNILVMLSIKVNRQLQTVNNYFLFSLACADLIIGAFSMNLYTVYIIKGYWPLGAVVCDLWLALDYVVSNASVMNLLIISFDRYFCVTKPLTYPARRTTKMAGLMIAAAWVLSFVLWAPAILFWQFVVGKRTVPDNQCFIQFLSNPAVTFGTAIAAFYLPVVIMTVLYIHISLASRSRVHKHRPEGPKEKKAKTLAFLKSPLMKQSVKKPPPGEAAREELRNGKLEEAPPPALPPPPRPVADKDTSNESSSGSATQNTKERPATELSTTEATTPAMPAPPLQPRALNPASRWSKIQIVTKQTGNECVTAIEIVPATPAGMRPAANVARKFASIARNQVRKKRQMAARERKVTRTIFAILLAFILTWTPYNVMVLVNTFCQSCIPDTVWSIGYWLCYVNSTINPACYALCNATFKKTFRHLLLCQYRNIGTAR
Kind of assay: mAChR M4 cell-based functional assay: calcium mobilization (Fluo-4, FDSS), potentiation of EC20 acetylcholine response in hM4-Gqi5 CHO-K1 cells. Particulars: human M4; for Emax at 30 µM: CHO-K1, % ACh maximum at 30 μM; for EC50: potentiation of EC20 acetylcholine response, calcium mobilization. Put shortly:
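Readout is the fluorescence-ratio rise at 1 Hz on FDSS, with PAM activity taken as concentration-dependent enhancement of the EC20 acetylcholine response, fitted four-parameter for EC50/Emax. hM4-Gqi5 CHO-K1 cells carried Fluo-4 AM dye; test compounds (11 points, 1:3) preceded EC20 acetylcholine additions at 144 s and 230 s.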

Consider `Cc1cc(=O)n2nc(N3CCc4ncc(-c5cnc6ccccc6c5)cc4C3)c(C)c(C)c2n1` [Compound 1-120, 2,8,9-trimethyl-7-(3-(quinolin-3-yl)-7,8-dihydro-1,6-naphthyridin-6(5H)-yl)-4H-pyrimido[1,2-b]pyridazin-4-one], for which the maximum response (Emax) at 30 µM worked out at 65% and the 50% effective concentration (EC50) worked out at 749 nM.
On the same counts, the results for `Cc1cc(=O)n2nc(N3CCc4ncc(-c5ccc(N(C)C)nc5)cc4C3)c(C)c(C)c2n1` [Compound 1-121, 7-(3-(6-(dimethylamino)pyridin-3-yl)-7,8-dihydro-1,6-naphthyridin-6(5H)-yl)-2,8,9-trimethyl-4H-pyrimido[1,2-b]pyridazin-4-one] are 83% and 722 nM.
The corresponding values for `Cc1cc(=O)n2nc(N3CCc4ncc(-c5cccnc5C)cc4C3)c(C)c(C)c2n1` [Compound 1-122, 2,8,9-trimethyl-7-(3-(2-methylpyridin-3-yl)-7,8-dihydro-1,6-naphthyridin-6(5H)-yl)-4H-pyrimido[1,2-b]pyridazin-4-one] are 93% and 2930 nM.
On the same counts, the results for `Cc1cc(=O)n2nc(N3CCc4ncc(-c5cncc(Cl)c5)cc4C3)c(C)c(C)c2n1` [Compound 1-123, 7-(3-(5-chloropyridin-3-yl)-7,8-dihydro-1,6-naphthyridin-6(5H)-yl)-2,8,9-trimethyl-4H-pyrimido[1,2-b]pyridazin-4-one] are 89% and 858 nM.
For the compound `Cc1cc(=O)n2nc(N3CCc4ncc(-c5cncc(C(F)(F)F)c5)cc4C3)c(C)c(C)c2n1` [Compound 1-124, 2,8,9-trimethyl-7-(3-(5-(trifluoromethyl)pyridin-3-yl)-7,8-dihydro-1,6-naphthyridin-6(5H)-yl)-4H-pyrimido[1,2-b]pyridazin-4-one], the Emax at 30 µM amounted to 84% and the EC50 came out at 3410 nM.
As for `Cc1cc(=O)n2nc(N3CCc4ncc(-c5cnccn5)cc4C3)c(C)c(C)c2n1` [Compound 1-125, 2,8,9-trimethyl-7-(3-(pyrazin-2-yl)-7,8-dihydro-1,6-naphthyridin-6(5H)-yl)-4H-pyrimido[1,2-b]pyridazin-4-one], the Emax at 30 µM is 97% and the EC50 was 368 nM.
For the compound `Cc1cc(=O)n2nc(N3CCc4ncc(-c5cnccc5Cl)cc4C3)c(C)c(C)c2n1` [Compound 1-126, 7-(3-(4-chloropyridin-3-yl)-7,8-dihydro-1,6-naphthyridin-6(5H)-yl)-2,8,9-trimethyl-4H-pyrimido[1,2-b]pyridazin-4-one], the Emax at 30 µM amounted to 88% and the EC50 worked out at 758 nM.
For the compound `Cc1cncc(-c2cnc3c(c2)CN(c2nn4c(=O)cc(C)nc4c(C)c2C)CC3)c1` [Compound 1-127, 2,8,9-trimethyl-7-(3-(5-methylpyridin-3-yl)-7,8-dihydro-1,6-naphthyridin-6(5H)-yl)-4H-pyrimido[1,2-b]pyridazin-4-one], the Emax at 30 µM is 86% and the EC50 was determined as 1240 nM.
On the same counts, the results for `Cc1cc(=O)n2nc(N3CCc4ncc(-c5ccc(C6CC6)nc5)cc4C3)c(C)c(C)c2n1` [Compound 1-128, 7-(3-(6-cyclopropylpyridin-3-yl)-7,8-dihydro-1,6-naphthyridin-6(5H)-yl)-2,8,9-trimethyl-4H-pyrimido[1,2-b]pyridazin-4-one] are 80% and 768 nM.
For `Cc1cc(=O)n2nc(N3CCc4ncc(-c5cccnc5)cc4C3)c(C)c(C)c2n1` [Compound 1-129, 2,8,9-trimethyl-7-(3-(pyridin-3-yl)-7,8-dihydro-1,6-naphthyridin-6(5H)-yl)-4H-pyrimido[1,2-b]pyridazin-4-one], the Emax at 30 µM was determined as 91% and the EC50 is 1620 nM.
Take `Cc1cc(=O)n2nc(N3CCc4ncc(-c5ccc(C(F)(F)F)nc5)cc4C3)c(C)c(C)c2n1` [Compound 1-130, 2,8,9-trimethyl-7-(3-(6-(trifluoromethyl)pyridin-3-yl)-7,8-dihydro-1,6-naphthyridin-6(5H)-yl)-4H-pyrimido[1,2-b]pyridazin-4-one]: the Emax at 30 µM was determined as 84% and the EC50 was 8090 nM.
Turning to `Cc1cc(=O)n2nc(N3CCc4ncc(-c5cn6ccnc6cc5C)cc4C3)c(C)c(C)c2n1` [Compound 1-131, 2,8,9-trimethyl-7-(3-(7-methylimidazo[1,2-a]pyridin-6-yl)-7,8-dihydro-1,6-naphthyridin-6(5H)-yl)-4H-pyrimido[1,2-b]pyridazin-4-one], the Emax at 30 µM was found to be 62% and the EC50 came out at 1760 nM.
Take `Cc1cc(=O)n2nc(N3CCc4ncc(-c5ccnnc5)cc4C3)c(C)c(C)c2n1` [Compound 1-132, 2,8,9-trimethyl-7-(3-(pyridazin-4-yl)-7,8-dihydro-1,6-naphthyridin-6(5H)-yl)-4H-pyrimido[1,2-b]pyridazin-4-one]: the Emax at 30 µM stood at 92% and the EC50 came out at 798 nM.
`Cc1cc(=O)n2nc(N3CCc4ncc(-c5ccc6nccn6c5)cc4C3)c(C)c(C)c2n1` [Compound 1-133, 7-(3-(imidazo[1,2-a]pyridin-6-yl)-7,8-dihydro-1,6-naphthyridin-6(5H)-yl)-2,8,9-trimethyl-4H-pyrimido[1,2-b]pyridazin-4-one]: the Emax at 30 µM amounted to 79% and the EC50 is 556 nM.
Consider `Cc1cc(=O)n2nc(N3CCc4ncc(-c5cncc(F)c5)cc4C3)c(C)c(C)c2n1` [Compound 1-134, 7-(3-(5-fluoropyridin-3-yl)-7,8-dihydro-1,6-naphthyridin-6(5H)-yl)-2,8,9-trimethyl-4H-pyrimido[1,2-b]pyridazin-4-one], for which the maximal effect (Emax) at 30 µM came to 88% and the EC50 was found to be 700 nM.
For the compound `Cc1ccc(-c2cnc3c(c2)CN(c2nn4c(=O)cc(C)nc4c(C)c2C)CC3)cc1` [Compound 1-135, 2,8,9-trimethyl-7-(3-(p-tolyl)-7,8-dihydro-1,6-naphthyridin-6(5H)-yl)-4H-pyrimido[1,2-b]pyridazin-4-one], the Emax at 30 µM worked out at 97% and the EC50 came to 626 nM.
`Cc1ccc(-c2cnc3c(c2)CN(c2nn4c(=O)cc(C)nc4c(C)c2C)CC3)c(C)c1` [Compound 1-136, 7-(3-(2,4-dimethylphenyl)-7,8-dihydro-1,6-naphthyridin-6(5H)-yl)-2,8,9-trimethyl-4H-pyrimido[1,2-b]pyridazin-4-one]: the Emax at 30 µM is 102% and the 50% effective concentration (EC50) came to 633 nM.
Regarding `Cc1cc(=O)n2nc(N3CCc4ncc(-c5ccccc5C)cc4C3)c(C)c(C)c2n1` [Compound 1-137, 2,8,9-trimethyl-7-(3-(o-tolyl)-7,8-dihydro-1,6-naphthyridin-6(5H)-yl)-4H-pyrimido[1,2-b]pyridazin-4-one], the Emax at 30 µM is 109% and the EC50 was 1730 nM.
For the compound `Cc1cc(=O)n2nc(N3CCc4ncc(-c5cc(F)ccc5C)cc4C3)c(C)c(C)c2n1` [Compound 1-138, 7-(3-(5-fluoro-2-methylphenyl)-7,8-dihydro-1,6-naphthyridin-6(5H)-yl)-2,8,9-trimethyl-4H-pyrimido[1,2-b]pyridazin-4-one], the Emax at 30 µM turned out to be 87% and the EC50 was 190 nM.
In the case of `COc1cc(C)c(-c2cnc3c(c2)CN(c2nn4c(=O)ccnc4c(C)c2C)CC3)cn1` [Compound 1-139, 7-(3-(6-methoxy-4-methylpyridin-3-yl)-7,8-dihydro-1,6-naphthyridin-6(5H)-yl)-8,9-dimethyl-4H-pyrimido[1,2-b]pyridazin-4-one], the Emax at 30 µM came out at 98% and the EC50 is 77 nM.

The record behind these values is patent US20250101041A1, “POSITIVE ALLOSTERIC MODULATORS OF THE MUSCARINIC ACETYLCHOLINE RECEPTOR M4” (Vanderbilt University, priority 2022, published 2025).
